According to patent publication US10653667B2, “Drug for preventing, treating or preventing metastasis of giant cell tumor that occurs in bone or soft parts, chondrosarcoma, or osteosarcoma, local injection for arterial embolization, and artificial bone” (NIPPON CHEMIPHAR CO., LTD, priority 2013, dated 2020):
Several values for one entry are separate records, joined by “and”; a condition that tells them apart may be missing. Equal entries are not always repeated.

Tested on: pigmented villonodular synovitis (PVNS)
Test: Curative effect of zaltoprofen (Soleton Tablet) on PVNS patients
Type: in vivo, human
Protocol: Soleton Tablet 80 (generic name: zaltoprofen, 80 mg, Nippon Chemiphar) was administered to a patient with giant cell tumor of bone (GCTB), patient with giant cell tumor of tendon sheath (GCTT), or patient with pigmented villonodular synovitis (PVNS) at a dose of 3 tablets per day (one tablet was administered in the morning, at noon, and in the evening), and the tumor size was evaluated by MRI every several months.
PVNS patients were administered with 3 tablets per day (one tablet was administered in the morning, at noon, and in the evening) of Soleton Tablet 80 (generic name; zaltoprofen, 80 mg, Nippon Chemiphar). Four weeks after the start of the administration, the tumor size was evaluated by imaging based on simple Roentgen contrast method, X-ray CT, and MRI (nuclear magnetic resonance imaging). Then, the tumors were excised from patients for whom surgical operation was possible, administration of zaltoprofen was continued at a dose of 240 mg per day (one 80 mg tablet was administered at the time of breakfast, lunch, and supper), and the tumor size was evaluated by imaging based on simple Roentgen contrast method, X-ray CT, and MRI (nuclear magnetic resonance imaging) every 16 weeks. Also for patients for whom surgical operation was difficult, administration of 240 mg zaltoprofen per day (one 80 mg tablet was administered at the time of breakfast, lunch, and supper) was continued, and the tumor size was evaluated by imaging based on simple Roentgen contrast method, X-ray CT, and MRI (nuclear magnetic resonance imaging) every 8 weeks.

[1] = recurrence of PVNS in the right knee (person; case b), after two months

CC(C(=O)O)c1ccc2c(c1)CC(=O)c1ccccc1S2 (stereo not drawn) [zaltoprofen]
diameter of PVNS after taking zaltoprofen (PVNS case a, shoulder joint, about 50 weeks, 27.7 mm before): 7.9 mm
diameter (major axis) of PVNS after taking zaltoprofen (PVNS case c, right knee joint, about 35 weeks, 59.5 mm before): 47.2 mm and 48.0 mm
KPS score after taking zaltoprofen (PVNS cases a and b, score 70 before): 100
change of PVNS (PVNS cases a, b, c, d, e, and f, no treatment except zaltoprofen): shrank
KPS score after taking zaltoprofen (PVNS cases c and d, score 80 before): 90
new metastasis during the taking of zaltoprofen (PVNS patients): any new metastasis of PVNS was not observed
recurrence during the taking of zaltoprofen after ablative operation (PVNS patients subjected to ablative operation): no recurrence of PVNS could be confirmed
shrinkage of PVNS in patients who took zaltoprofen (all the patients): shrinkage of PVNS could be confirmed in all the patients
number of cases judged to be partial response (PR) (among 11 PVNS cases for which the response rate was determined, 240 mg per day): one
cases in which the KPS score worsened (cases of PVNS who took zaltoprofen): no case in which the KPS score worsened
response judgement of all the PVNS patients who took zaltoprofen (human, in vivo): partial response (PR) or stable disease (SD)
MRI imaging effect (recurrence of PVNS in the right knee (case i), 3 tablets per day, after three months): attenuation of the MRI imaging effect
pain and knee-joint excursion (recurrence of PVNS in the right knee (case i), after three months): improvement was observed
pain [1]: improvement of pain
tumor size by MRI [1]: shrinkage of tumor
